Experimental data reported in US9278134B2, “Dual functioning ionic liquids and salts thereof” (priority 2008, dated 2016).

Assay: Thermal decomposition onset (T5% onset) by TGA
Details: not given

| Compound | T5%onset [°C] |
| --- | --- |
| CCN(CC)CCNC(=O)c1ccc(N)cc1.O=C(O)c1ccccc1O [Example 61, Procainamide Salicylate] | 199 |
| CCN(CC)CC(=O)Nc1c(C)cccc1C.CN[C@@H](C)[C@H](O)c1ccccc1.O=C(O)c1ccccc1O [Example 23, Ephedrinium-lidocaine Salicylate] | 149 |
| CC(CN1c2ccccc2Sc2ccccc21)N(C)C.CCCCC(CC)COC(=O)CC(C(=O)OCC(CC)CCCC)S(=O)(=O)O (centres unmarked) [Example 60, Promethazine Docusate] | 246 |
| CC(CN1c2ccccc2Sc2ccccc21)N(C)C.CN[C@@H](C)[C@H](O)c1ccccc1.O=C(O)c1ccccc1O (centres unmarked) [Example 29, Promethazine-ephedrinium Salicylate] | 151 |
| CC(C)Cc1ccc(C(C)C(=O)O)cc1.CN[C@@H](C)[C@H](O)c1ccccc1 (centres unmarked) [Example 57, Ephedrinium Ibuprofenate] | 238 |
| CCN(CC)CC(=O)Nc1c(C)cccc1C.O=C(O)c1ccccc1O [Lid:Sal 1:1, Lidocainium Salicylate] | 161 |
| CCCCC(CC)COC(=O)CC(C(=O)OCC(CC)CCCC)S(=O)(=O)O.COc1cccc(C2(O)CCCCC2CN(C)C)c1 (centres unmarked) [Example 51, Tramadolium Docusate] | 226 |
| CCCC[P+](CCCC)(CCCC)CC(=O)Oc1ccc(NC(C)=O)cc1 [Example 34, (2-(4-acetamidophenoxy)-2-oxoethyl)tributylphosphonium Chloride] | 197 |
| CCCCCCCCCCCCCCCC[n+]1ccccc1 [CetPy:Sal 1:1, Cetylpyridinium Salicylate] | 206 |
| CCCC[PH](CCCC)(CCCC)CC(=O)Oc1ccc(NC(C)=O)cc1 [Example 38, (2-(4-acetamidophenoxy)-2-oxoethyl)tributylphosphonium Docusate] | 227 |
| CC(=O)Nc1ccc(OC(=O)C[N+]2(C)CCCC2)cc1 [Example 36, 1-(2-(4-acetamidophenoxy)-2-oxoethyl)-1-methylpyrrolidinium Docusate] | 233 |
| CCCCC(CC)COC(=O)CC(C(=O)OCC(CC)CCCC)S(=O)(=O)O.CN[C@@H](C)[C@H](O)c1ccccc1 (centres unmarked) [Example 59, Ephedrinium Docusate] | 238 |
| CC(=O)Nc1ccc(OC(=O)C[n+]2ccccc2)cc1 [Example 37, 1-(2-(4-acetamidophenoxy)-2-oxoethyl)pyridinium Docusate] | 238 |
| CC(C)(Oc1ccc(Cl)cc1)C(=O)O.CN[C@@H](C)[C@H](O)c1ccccc1 [Eph:Clofib 1:1, Ephedrinium Clofibrate] | 166 |
| COc1cccc(C2(O)CCCCC2CN(C)C)c1.O=C(O)c1ccccc1O (centres unmarked) [Example 47, Tramadolium Salicylate] | 220 |

Same assay, conditions: TGA/DSC, 25° C. to 600° C. with 5° C./min under nitrogen; cetylpyridinium salicylate-salicylic acid co-ionic liquids

| Compound | T5%onset [°C] |
| --- | --- |
| CCCCCCCCCCCCCCCC[n+]1ccccc1 [CetPy:Sal 1:1, Cetylpyridinium Salicylate] | 206 |
| Cetylpyridinium Salicylate-salicylic Acid [CetPy:Sal 1:2] | 184 |

Same assay, conditions: TGA/DSC, 25° C. to 600° C. with 5° C./min under nitrogen; choline salicylate-salicylic acid co-ionic liquids

| Compound | T5%onset [°C] |
| --- | --- |
| C[N+](C)(C)CCO.O=C([O-])c1ccccc1O [Cho:Sal 1:1, choline salicylate] | 203 |

Same assay, conditions: TGA/DSC, 25° C. to 600° C. with 5° C./min under nitrogen; ephedrinium clofibrate co-ionic liquids prepared by melting

| Compound | Tonset 5% [°C] |
| --- | --- |
| CC(C)(Oc1ccc(Cl)cc1)C(=O)O.CN[C@@H](C)[C@H](O)c1ccccc1 [Eph:Clofib 1:1, Ephedrinium Clofibrate] | 169 |

Same assay, conditions: TGA/DSC, 25° C. to 600° C. with 5° C./min under nitrogen; lidocaine salicylate co-ionic liquids

| Compound | Tonset 5% [°C] |
| --- | --- |
| O=C(O)c1ccccc1O [Salicylic acid, reference compound] | 134 |
| Lidocaine Salicylates [Lid:Sal 1:2] | 138 |
| Lidocaine Salicylates [Lid:Sal 1:2.5] | 132 |
| CCN(CC)CC(=O)Nc1c(C)cccc1C.O=C(O)c1ccccc1O [Lid:Sal 1:1, Lidocainium Salicylate] | 161 |
| Lidocaine Salicylates [Lid:Sal 1:3] | 128 |
| Lidocaine Salicylates [Lid:Sal 1.5:1] | 169 |
| Lidocaine Salicylates [Lid:Sal 2:1] | 154 |

Same assay, conditions: TGA/DSC, 25° C. to 600° C. with 5° C./min under nitrogen; tetrabutylphosphonium lactate-lactic acid co-ionic liquids

| Compound | T5%onset |
| --- | --- |
| CCCC[P+](CCCC)(CCCC)CCCC [P(Bu)4Lac 1:2, Tetrabutylphosphonium Lactate-lactic Acid] | 215 |
| CCCC[P+](CCCC)(CCCC)CCCC [P(Bu)4Lac 1:1, tetrabutylphosphonium lactate] | 262 |

Same assay, conditions: TGA/DSC, 25° C. to 600° C. with 5° C./min under nitrogen; tetrabutylphosphonium salicylate-salicylic acid co-ionic liquids

| Compound | T5%onset [°C] |
| --- | --- |
| O=C(O)c1ccccc1O [Salicylic acid, reference compound] | 136 |
